Assay results from patent US20120305476A1, “TREATMENT METHOD FOR REDUCING THE PRODUCTION OF AN H2S COMPOUND IN AQUEOUS EFFLUENTS PASSING INTO A PIPE” (CENTRE NATIONAL DE LA RECHERCHE SCIENTIFIQUE (CNRS), priority 2010, published 2012).
Read-outs that look alike come from different tables or passages of the source.

What was measured:
[1] = system: Desulfovibrio vulgaris Hindelborough (DvH); test: H2S production by stationary-phase DvH culture on lactate/sulfate medium with metabolic inhibitors; type: cell-based; conditions: for effect of metabolic inhibitor on DvH culture / H2S production: tested at different concentrations
Protocol: Experiments were carried out with the SRB bacterium Desulfovibrio vulgaris Hindelborough (DvH) for which the genome has been sequenced and which is the model system for the study of sulfate-reducing bacteria.
The culture medium was a lactate/sulfate medium comprising: sodium sulfate 28 mM, magnesium sulfate 8 mM, lactate 45 mM and oligoelements (iron, Zn, Mn, Cu, Co, Mo, Ni, Se, W, Mg).
Various metabolic inhibitors were tested at different concentrations; examples were the addition of iron, oxygen, or a detergent. […] The study was continued by looking at the effect of adding small defined quantities of nitrite and nitrate on the production of H2S by the SRB.

[2] = system: DvH+Shewanella consortium; conditions: 5 mM; for production of H2S: FIG. 3 panel B
Text: FIG. 3 represents the effect of adding exogenous bacteria of the Shewanella type on the growth of a strain of sulfate-reducing bacteria, DvH, in the presence of nitrate or nitrite (panel A, %=quantity of biomass expressed as a % of the optical density (OD) at 600 nm [nanometers], such that 100% represents the OD at 600 nm for the biomass of a culture of DvH on a lactate/sulfate medium in the absence of treatment) and on the production of H2S (panel B, mM H2S). The control (growth and production of H2S) used a DvH culture with or without the addition of inhibitor. The effect of adding the Shewanella bacteria on the growth and production of H2S is presented in the presence of nitrate (+nitrite) and in the absence of nitrite (nitrite). The Shewanella bacteria alone had no significant effect on H2S production. In FIG. 3, the various symbols represent the experiments under the following conditions: ? =5 mM of nitrate on a DvH+Shewanella consortium, ? =consortium of DvH+Shewanella bacteria in the presence of 5 mM of nitrite, ? =presence of DvH bacteria alone, ? =presence of DvH bacteria alone+nitrite;
A wide range of non-pathogenic aerobic and anaerobic bacteria known to be decontaminants that are compatible with a toxic environment was tested, including the following Gram− aerobic bacteria: Shewanella oneidensis, Rhodobacter sphaeroides, Rhodobacter denitrificans, R. velkampi, Pseudomonas stutzeri, Pseudomonas zobell and Rhospeudomonas palustri, as well as the following anaerobic Gram+ bacteria: Bacillus mojavensis and Bacillus amiloliquefaciens.
However, it has been discovered that it is possible to overcome this bactericidal effect problem by adding exogenic bacteria.

[3] = system: bacteria from the sludge sample (Shigella/Escherichia coli/Salmonella, Clostridium, Desulfovibrio type)
[4] = system: sulfate-reducing bacteria (SRB)
Protocol: Experiments were carried out on a sewerage system diagrammatically shown in FIG. 6, comprising a cesspool 3 supplied with effluent 1 from a conduit 11, a lifting pump 4 that was used to supply a force main 2 from the cesspool 3 to a holding tank 8 cooperating with a gravity fed transfer conduit 9 to a treatment plant (not shown).
The force main 2 was 1170 m [meter] long with a nominal diameter of 250 mm [millimeter], giving a volume of 57.5 m^3. The delivery of the lifting pump was 150 m^3/hour. A nitrite tank 12 cooperated with a dosing pump 7 to inject nitrite into the effluents entering the force main 2.
Sodium nitrite NaNO2 was tested in 40% by weight solution with a density of 1.3. This reagent was injected directly into the effluent pumping pit almost level with the inlet thereof into the force main via a dedicated dosing pump 7 that could reach a delivery of up to 14 L/h. Start-up of the dosing pump 7 was linked with that of the lifting pump 4 with the two pumps being stopped by a low level of effluents in the cesspool 3.
Various measurements for the concentration of sulfide in water leaving the force main were carried out. The concentration of sulfide in water was determined by means of an assay kit using the reaction of H2S with aniline forming a colorless intermediate that is oxidized by ferric ions to a colored compound: methylene blue, an optical disk comparator with a color gradient, was used to determine the concentration of sulfide in the solution as a function of its color. The temperatures of the effluent and redox potential were measured at the holding tank or settling tank 8 using standard equipment.

[5] = system: SRB bacteria that produce H2S; conditions: treatment with nitrite alone; cited from earlier work
[6] = system: Desulfovibrio vulgaris Hindelborough (DvH); conditions: SRB pure strain (DvH alone), FIG. 2
Text: FIG. 2 represents the relationship between the quantity of biomass (%) and the production of H2S (mM) for a stationary phase culture of DvH bacteria in the presence of different concentrations of nitrites or nitrates in the culture medium. The quantity of biomass (bacterial survival) is expressed as the % optical density (OD) at 600 nm [nanometer] compared with the OD at 600 nm of the biomass for a DvH culture on a lactate/sulfate medium in the absence of treatment, this culture representing 100%;
In FIG. 2, the quantities of biomass (% growth) and production of H2S (mM) are shown under the following conditions: ? =% growth+nitrite, ? =H2S production+nitrite, ? =% growth+nitrate, ? H2S production+nitrate;
In FIG. 2, bacterial survival was monitored.

## [Fe] [iron]
[1]
  effect of metabolic inhibitor on DvH culture / H2S production: induced a drastic oxidizing stress and caused bacterial death

## O=[N+]([O-])O [nitrate]
[2]
  production of H2S: no significant reduction in H2S production was observed
[1]
  concentration giving visible and substantial inhibition of H2S production: 15 mM
  reduction of the production of H2S: approximately 90%

## O=NO [nitrite]
[2]; FIG. 3 panel A
  biomass: maintaining the biomass
[2]
  production of H2S: reduction in the production of H2S
[3]; beyond 5 mM of nitrite
  biomass (bactericidal effect): biomass was slightly affected
  inhibiting effect on H2S production: inhibiting effect on H2S production reduced
[3]; even in the absence of Shewanella, concentration 5 mM or less
  cell death: did not induce cell death
[3]; nitrite consumed over time
  duration of the effect on the bacteria after nitrite is consumed: long-lasting effect or remanence effect
[3]; sludge sample
  concentration from which a drop in the production of H2S is induced: ≥ 3 mM
[4]; after 24 h
  rise in the sulfide concentrations after stopping the nitrite treatment: no more than 25%
[4]; after stopping treatment
  rise in the sulfide concentrations after stopping the nitrite treatment: approximately 10%
[5]
  effect on hydrogen sulfide production: No effect on hydrogen sulfide production is observed
[1]
  concentration giving visible and substantial inhibition of H2S production: ≥ 5 mM
  reduction of the production of H2S: approximately 90%

## O=O [oxygen]
[1]
  effect of metabolic inhibitor on DvH culture / H2S production: production of H2S restarted as soon as the redox potential of the medium became negative again

## O=NO [sodium nitrite]
[6]
  bacterial survival: lethal effect on bacteria
[4]; 2.5 g/m^3 to 6 g/m^3 per g/m^3 of sulfide to be reduced, every other day or overnight
  maximum quantity of dissolved sulfide H2S at the outlet from the force main: ≤ 1.5 mg/L
[4]; 4 g to 5 g per gram of dissolved sulfide produced in the absence of treatment
  quantity of dissolved sulfites at the force main outlet: ≤ 1 mg/L
[4]; daily treatments with 2.5 g/m^3 to 6 g/m^3 of NaNO2
  reduction of dissolved sulfide produced by the conduit: 1 g/m^3
[4]; on-site, transient and intermittent treatment
  remanence of inhibiting activity: remanence effect
